Results from patent US20230256011A1, “Chlorite In the Treatment of Acute Respiratory Distress Syndrome” (The Regents of the University of California, priority 2020, published 2023).
Values joined by “and” are separate entries in the source; they are usually repeats but may differ in a detail not shown here. Equal values may be shown once.

Key:
Normal blood macrophages = settings: 150uM, three days, three donors
ALS blood monocytes [1] = settings: 300uM, 3 days, FIG. 4
Procedure: Culture supernatants were harvested and cytokine levels were determined by ELISA. […] Referring to the Y-axis, percentage of reduction is the level of factor in treated as compared to untreated macrophages. N is 8-18 in several experiments.

[2] = system: blood derived macrophages (CD16 on CD14 cells); settings: +30 µM, +100 µM, +300 µM, three days, 5 donors, FIG. 2
Procedure: Cells were then processed for flow cytometry (5 separate donors) and CD14 cell co-expression of CD16 (macrophage activation marker) was scored.
Percentage of control median CD16 was calculated for all 5 donors +/- SD.

[3] = system: Blood derived macrophages from ALS patients; settings: 300uM overnight, two ALS patients, FIG. 3
Source text: The maj or focus was on regulation of inflammation as compared to normal macrophage functional genes. […] Note that by “housekeeping genes” is meant B2M, HPRT1, RPL13A, GAPDH, and ACTB.

ALS blood monocytes [4] = settings: 3 days
Procedure: Culture supernatants are harvested and osteopontin levels (OPN) are determined by ELISA.
Repeated with 3 normal and 5 ALS donors.

Substance: sodium chlorite [sodium chlorite formulation]
- CCR3 gene down regulated (Normal blood macrophages): 3 X
- CXCL9 gene down regulated (Normal blood macrophages): 14 X
- SERPINB2 gene upregulated (Normal blood macrophages): 4 X
- Chlorite % Reduction of factor in vitro, MIG (COVID19 blood monocytes): 88% and 70%
- Chlorite % reduction of factor in vitro, IP10 (COVID19 blood monocytes): 95% and 80%
- down regulation of HGF (COVID19 blood monocytes): greater than 50%
- down regulation of IL1Ra (COVID19 blood monocytes): greater than 50%
- down regulation of IP10 (CXCL10) (COVID19 blood monocytes): greater than 50%
- down regulation of MIG (CXCL9) (COVID19 blood monocytes): greater than 50%
- down regulation of OPN (COVID19 blood monocytes): greater than 50%
- down regulation of sCD163 (CD163) (COVID19 blood monocytes): greater than 50%
- production of COVID-19 patient macrophage produced disease factors (IL-1Ra, IP-10, HGF, MIG, sCD163, OPN) as compared to controls (COVID19 blood monocytes): downregulated production
- production of secreted inflammatory factors (IL-1Ra, CD163, CD14, OPN) (ALS blood monocytes [1]): inhibits production
- CD16 expression on CD14+ (monocyte lineage) cells [2]: dose dependent down regulation of CD16
- CCL16 gene expression [3]: clear down regulation
- CCR2 gene expression [3]: clear down regulation
- CXCL9 gene expression [3]: clear down regulation
- CXCL10 gene expression [3]: clear down regulation
- IL-18 gene expression (inflammasome activation) [3]: clear down regulation
- TLR4 gene expression [3]: clear down regulation
- production of OPN from ALS patient macrophages (ELISA) (ALS blood monocytes [4]; 150uM, FIG. 6 panel A): inhibit production of OPN
- SPP1 (osteopontin) gene expression (ALS blood monocytes [4]; dose response, FIG. 6 panel B): inhibits SPP1 (osteopontin) gene expression in a dose-dependent manner
